Measurements taken from publication PMC8766756, “Insights on Cancer Cell Inhibition, Subcellular Activities, and Kinase Profile of Phenylacetamides Pending 1H-Imidazol-5-One Variants” (Frontiers in Pharmacology, 2022).
“And” between values parts separate entries of the source, which are not always exact repeats. Identical values can stand only once.

Legend:
JAK3 (P52333) = biological target: T1, JAK3 (P52333) (Homo sapiens, UniProt P52333); assay: PamChip tyrosine kinase microarray; assay type: biochemical; conditions: 0.1 µM, HL60 lysate
T1 construct: purchased PamGene (PamChip PTK array, Upstream Kinase Analysis)
T1 sequence (P52333 1-1124): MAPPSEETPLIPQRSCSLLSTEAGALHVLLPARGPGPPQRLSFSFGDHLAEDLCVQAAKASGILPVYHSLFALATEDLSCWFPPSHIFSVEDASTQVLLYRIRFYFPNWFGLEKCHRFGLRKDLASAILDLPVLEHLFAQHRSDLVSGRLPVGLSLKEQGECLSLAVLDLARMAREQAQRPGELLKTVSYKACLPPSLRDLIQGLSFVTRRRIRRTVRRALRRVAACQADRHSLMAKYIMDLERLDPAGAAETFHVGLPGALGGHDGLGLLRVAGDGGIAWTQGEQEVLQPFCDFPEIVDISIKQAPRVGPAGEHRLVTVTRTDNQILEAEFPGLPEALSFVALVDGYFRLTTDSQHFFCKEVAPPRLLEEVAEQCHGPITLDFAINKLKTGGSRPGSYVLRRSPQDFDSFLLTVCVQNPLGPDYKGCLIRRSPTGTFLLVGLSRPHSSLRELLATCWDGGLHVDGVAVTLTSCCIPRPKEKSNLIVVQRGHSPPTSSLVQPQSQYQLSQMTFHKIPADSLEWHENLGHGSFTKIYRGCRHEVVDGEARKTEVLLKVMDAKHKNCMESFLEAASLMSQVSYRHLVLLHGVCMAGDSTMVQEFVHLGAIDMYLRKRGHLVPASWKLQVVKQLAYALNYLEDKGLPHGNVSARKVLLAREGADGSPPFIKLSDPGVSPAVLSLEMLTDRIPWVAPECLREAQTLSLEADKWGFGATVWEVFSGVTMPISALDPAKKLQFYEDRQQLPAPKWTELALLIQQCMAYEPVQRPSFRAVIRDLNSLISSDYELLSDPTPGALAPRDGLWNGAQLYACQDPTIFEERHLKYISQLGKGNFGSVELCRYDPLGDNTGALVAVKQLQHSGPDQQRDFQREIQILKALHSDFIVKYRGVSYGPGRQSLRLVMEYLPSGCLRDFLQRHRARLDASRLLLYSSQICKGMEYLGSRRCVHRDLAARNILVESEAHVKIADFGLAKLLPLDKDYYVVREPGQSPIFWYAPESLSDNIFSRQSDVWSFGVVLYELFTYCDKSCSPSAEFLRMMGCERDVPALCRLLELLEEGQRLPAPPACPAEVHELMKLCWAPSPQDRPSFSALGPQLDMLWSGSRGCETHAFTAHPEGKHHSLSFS
Outline: (§1)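 HL60 (AML) cell lysate was spiked with compound at 0.001, 0.01, 0.1, 1, 10 and 50 µM, or 2% v/v DMSO as control, then profiled in technical replicates on a tyrosine kinase peptide array of 196 phosphosites. Kinase activity was inferred from peptide-set changes using an upstream kinase tool.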

FLT1 (P17948) = biological target: T2, FLT1 (P17948) (Homo sapiens, UniProt P17948); assay: PamChip tyrosine kinase microarray; assay type: biochemical; conditions: 0.1 µM, HL60 lysate
T2 construct: purchased PamGene (PamChip PTK array, Upstream Kinase Analysis)
Outline: as §1

T2 sequence (P17948 27-1338): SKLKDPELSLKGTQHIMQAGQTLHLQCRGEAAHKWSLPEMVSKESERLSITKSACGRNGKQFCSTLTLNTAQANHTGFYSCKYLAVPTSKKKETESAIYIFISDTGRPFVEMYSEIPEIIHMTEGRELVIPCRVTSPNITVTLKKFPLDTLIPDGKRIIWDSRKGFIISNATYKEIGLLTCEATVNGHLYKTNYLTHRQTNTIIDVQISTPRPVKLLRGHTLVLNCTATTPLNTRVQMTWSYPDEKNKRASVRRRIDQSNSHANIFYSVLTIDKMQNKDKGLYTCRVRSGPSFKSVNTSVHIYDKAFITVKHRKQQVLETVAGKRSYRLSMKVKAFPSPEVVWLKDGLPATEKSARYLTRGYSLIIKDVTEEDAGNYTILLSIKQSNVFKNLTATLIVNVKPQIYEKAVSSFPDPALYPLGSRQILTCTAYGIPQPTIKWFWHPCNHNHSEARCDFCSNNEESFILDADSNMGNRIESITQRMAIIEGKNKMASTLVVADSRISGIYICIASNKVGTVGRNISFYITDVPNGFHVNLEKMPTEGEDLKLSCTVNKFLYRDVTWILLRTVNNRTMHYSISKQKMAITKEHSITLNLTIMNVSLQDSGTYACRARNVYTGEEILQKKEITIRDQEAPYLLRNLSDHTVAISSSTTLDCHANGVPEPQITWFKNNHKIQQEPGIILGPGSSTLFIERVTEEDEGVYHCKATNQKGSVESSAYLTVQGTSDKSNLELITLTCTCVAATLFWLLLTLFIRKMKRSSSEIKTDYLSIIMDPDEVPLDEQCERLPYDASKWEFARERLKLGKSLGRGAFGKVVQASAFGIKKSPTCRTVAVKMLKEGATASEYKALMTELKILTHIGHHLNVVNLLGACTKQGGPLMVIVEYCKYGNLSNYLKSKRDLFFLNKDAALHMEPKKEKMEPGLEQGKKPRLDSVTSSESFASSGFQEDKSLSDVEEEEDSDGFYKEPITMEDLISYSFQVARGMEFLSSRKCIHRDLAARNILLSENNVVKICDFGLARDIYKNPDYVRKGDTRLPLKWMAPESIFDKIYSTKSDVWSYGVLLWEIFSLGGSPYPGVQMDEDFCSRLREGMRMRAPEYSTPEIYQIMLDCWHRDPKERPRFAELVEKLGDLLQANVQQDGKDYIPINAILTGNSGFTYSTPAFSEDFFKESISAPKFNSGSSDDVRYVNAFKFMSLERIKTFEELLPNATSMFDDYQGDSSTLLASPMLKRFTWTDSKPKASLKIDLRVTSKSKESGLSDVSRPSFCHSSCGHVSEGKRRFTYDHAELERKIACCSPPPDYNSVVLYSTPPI

For COc1ccc(/C=C2\N=C(C)N(c3ccc(CC(=O)NCc4ccccc4)cc3)C2=O)cc1 [Compound 4c, (Z)-N-Benzyl-2-(4-(4-(4-methoxybenzylidene)-2-methyl-5-oxo-4,5-dihydro-1H-imidazol-1-yl)phenyl)acetamide], the “Mean Final score (Kinase score)” value (JAK3 (P52333)) was 1.746, the “Mean Kinase Statistic” value (JAK3 (P52333)) was -1.15 and the “Mean Significance Score” value (JAK3 (P52333)) was 1.478. The “Mean Specificity Score” value (JAK3 (P52333)) was 0.2986, the “Mean Significance Score” value (FLT1 (P17948)) was 2.048 and the “Mean Specificity Score” value (FLT1 (P17948)) was 1.113. The “Mean Final score (Kinase score)” value (FLT1 (P17948); listed as KIM-161) was 3.23 and 3.228.
